The values that follow come from patent publication EP1171440B1, “SUBSTITUTED-3-CYANO-[1.7],[1.5], AND [1.8]-NAPHTHYRIDINE INHIBITORS OF TYROSINE KINASES” (Wyeth Holdings Corporation, priority 1999, dated 2000).

Molecules are shown by their SMILES. ≈ marks a conversion by molar mass, not a printed value. Where “and” joins values, the source holds several entries; their conditions need not be identical. Equal entries are not always repeated. Where two headings read alike, the source gives them in different places.

The target of assay [1] is T1, EGF-R Kinase (recombinant enzyme) (Homo sapiens, UniProt P00533).
T1 construct: containing the EGFR cDNA encoding amino acids 645 - 1186 preceded by Met-Ala-(His)6; made in house; host or cells: Sf9 insect cells infected with recombinant baculovirus vHcEGFR52
T1 sequence (P00533 669-1210): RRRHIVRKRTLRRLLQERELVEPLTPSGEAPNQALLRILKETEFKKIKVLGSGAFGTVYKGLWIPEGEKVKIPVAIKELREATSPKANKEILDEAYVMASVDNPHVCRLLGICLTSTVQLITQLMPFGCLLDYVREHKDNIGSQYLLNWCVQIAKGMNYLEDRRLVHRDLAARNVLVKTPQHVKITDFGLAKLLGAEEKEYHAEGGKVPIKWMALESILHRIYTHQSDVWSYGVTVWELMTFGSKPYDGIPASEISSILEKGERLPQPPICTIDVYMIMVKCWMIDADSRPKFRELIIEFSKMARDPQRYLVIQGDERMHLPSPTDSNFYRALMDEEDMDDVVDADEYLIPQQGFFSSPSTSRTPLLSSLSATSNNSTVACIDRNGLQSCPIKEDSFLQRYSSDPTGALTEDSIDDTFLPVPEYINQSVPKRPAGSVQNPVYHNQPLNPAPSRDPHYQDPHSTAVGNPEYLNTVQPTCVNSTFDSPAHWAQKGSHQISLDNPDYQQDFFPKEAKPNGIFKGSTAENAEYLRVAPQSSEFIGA
Nature of the assay: Inhibition of Epidermal Growth Factor Receptor Kinase (EGF-R) using recombinant enzyme, RR-SRC peptide phosphorylation with 33P-ATP. The assay is classed as biochemical. To be noted: for inhibition at 0.5 µM: 0.5 µM concentration of test compound, read-out: % Inhibition @ 0.5. On the procedure: Representative test compounds were evaluated for their ability to inhibit the phosphorylation of the tyrosine residue of a peptide substrate catalyzed by the enzyme epidermal growth factor receptor kinase. […] The enzyme used in this assay is the His-tagged cytoplasmic domain of EGFR. A recombinant baculovirus (vHcEGFR52) was constructed containing the EGFR cDNA encoding amino acids 645 - 1186 preceded by Met-Ala-(His)6 . Sf9 cells in 100 mm plates were infected at an moi of 10 pfu/cell and cells were harvested 48 h post infection. A cytoplasmic extract was prepared using 1% Triton X-100 and applied to Ni-NTA column. After washing the column with 20 mM imidazole, HcEGFR was eluted with 250 mM imidazole (in 50 mM Na2HPO4, pH 8.0, 300 mM NaCl). Fractions collected were dialyzed against 10 mM HEPES, pH 7.0, 50 mM NaCl, 10% glycerol, 1ug/mL antipain and leupeptin and 0.1 mM Pefabloc SC. The protein was frozen in dry ice/methanol and stored -70° C.
Test compounds were made into 10 mg/mL stock solutions in 100% dimethylsulfoxide (DMSO). Prior to experiment, stock solutions were diluted to 500 uM with 100% DMSO and then serially diluted to the desired concentration with HEPES buffer (30 mM HEPES pH 7.4).
For the enzyme reaction, 10 uL of each inhibitor (at various concentrations) were added to each well of a 96-well plate. To this was added 3 uL of enzyme (1:10 dilution in 10mM HEPES, pH 7.4 for final conc. of 1:120). This was allowed to sit for 10 min on ice and was followed by the addition of 5 ul peptide (80 uM final conc.), 10ul of 4X Buffer (Table A), 0.25 uL ^33P-ATP and 12 uL H2O. The reaction was allowed to run for 90 min at room temperature and was followed by spotting the entire volume on to precut P81 filter papers. The filter discs were washed 2X with 0.5% phosphoric acid and radioactivity was measured using a liquid scintillation counter. Table A
The IC50 is the concentration of test compound needed to reduce the total amount of phosphorylated substrate by 50%. The % inhibition of the test compound was determined for at least three different concentrations and the IC50 value was evaluated from the dose response curve. […] CPM(control) is in units of counts per minute and was a number expressing the amount of radiolabeled ATP (γ-^33P) incorporated into the RR-SRC peptide substrate by the enzyme after 90 minutes at room temperature in the absence of test compound as measured by liquid scintillation counting. The CPM values were corrected for the background counts produced by ATP in the absence of the enzymatic reaction. Where it was possible to determine an IC50 value, this is reported in TABLE 1 otherwise the % inhibition at 0.5 µM concentration of test compound is shown in TABLE 1.

Assay [2] addresses Mitogen Activated Protein Kinase (Mek-Erk) (Homo sapiens, UniProt P28482+Q02750). Nature of the assay: Mitogen Activated Protein Kinase (MAPK) coupled MEK 1 / ERK2 assay. The assay is classed as biochemical. Conditions: separate entries = evaluated more than one time. On the procedure: To evaluate inhibitors of the MAP (mitogen activated protein) kinase a two component coupled standard pharmacological test procedure, which measures phosphorylation of a serine/threonine residue in an appropriate sequence in the substrate in the presence and absence of a putative inhibitor, was used. Recombinant human MEK 1 (MAPKK) was first used to activate recombinant human ERK2 (MAPK) and the activated MAPK (ERK) was incubated with substrate (MBP peptide or MYC peptide) in the presence of ATP, Mg^+2 and radiolabeled ^33P ATP. The phosphorylated peptide was captured on a P 81 phosphocellulose filter (paper filter or embedded in microtiter plate) washed and counted by scintillation methods.
The peptide substrates used in the assay are MBP, peptide substrate ([…]), or synthetic Myc substrate, ([…]•5 TFA. The recombinant enzymes used were prepared as GST fusion proteins of human ERK 2 and human MEK 1. Inhibitor samples were prepared as 10X stocks in 10% DMSO and an appropriate aliquot was used to deliver either 10 ug/ml for a single point screening dose or 100, 10, 1, and 0.1 uM final concentration for a dose response curve. Final DMSO concentrations were less than or equal to 1%.
The reaction was run as follows in 50 mM Tris kinase buffer, pH 7.4 in a reaction volume of 50 ul. The appropriate volume of kinase buffer and inhibitor sample was added to the tube. Appropriate dilution of enzyme was delivered to give 2-5 ug recombinant MAPK (Erk ) per tube. The inhibitor was incubated with MAPK (Erk) for 30 min at 0 deg. C. Recombinant Mek (MAPKK) ( 0.5-2.5 ug) or fully activated Mek (0.05-0.1 units) was added to activate the Erk and incubated for 30 min at 30° C. Then substrate and gamma ^33P ATP was were added to give a final concentration of 0.5- 1 mM MBPP or 250-500 uM Myc; 0.2-0.5 uCi gamma ^33P ATP/tube; 50 µM ATP final concentration. Samples were incubated at 30°C for 30 minutes and the reaction was stopped by adding 25 µl of ice cold 10 %TCA. After samples were chilled on ice for 30 min, 20 µl of sample was transferred onto P 81 phosphocellulose filter paper or appropriate MTP with embedded P 81 filter. Filter papers or MTP were washed 2 times with a large volume of 1% acetic acid, then 2 times with water. The filters or MTP were briefly air dried before addition of scintillant and samples were counted in the appropriate scintillation counter set up for reading ^33P isotope. Samples included a positive control (activated enzyme plus substrate); a no enzyme control; a no substrate control; samples with different concentrations of putative inhibitor; and samples with reference inhibitors (other active compounds or non-specific inhibitors such as staurosporine or K252 B).
The raw data was captured as cpm. Sample replicates were averaged and corrected for background count. Mean cpm data was tabulated by group and % inhibition by a test compound was calculated as (corrected cpm control- corrected. cpm sample/control) X 100 = % inhibition. If several concentrations of inhibitor were tested, IC50 values (the concentration which gives 50% inhibition) were determined graphically from the dose response curve for % inhibition or by an appropriate computer program. The results obtained for representative compounds of this invention are listed in TABLE 3 where there may be separate entries for the same compound; this is an indication that the compound was evaluated more than one time.

In the next assay the test system is A2780DDP. Nature of the assay: Inhibition of Cancer Cell Growth as Measured by Cell Number (Sulforhodamine B). The assay is classed as cell-based, Human. To be noted: 48 hours exposure. On the procedure: (§1) After 48 hours exposure to test compounds, cells were fixed with trichloroacetic acid, and stained with Sulforhodamine B. After washing with trichloroacetic acid, bound dye was solubilized in 10 mM Tris base and optical density was determined using a plate reader. Under conditions of the assay the optical density is proportional to the number of cells in the well. […] The test procedure is described in details by Philip Skehan et. al, J.Natl. Canc. […] The Her2Neu cell line is a 3T3 line that has bbeen transfected with Her2 receptor kinase.

A further assay relates to A2780S. The description is as above. The format is cell-based, Human. Conditions: 48 hours exposure. Here is the method:
as §1

The next assay has as its system A431. The assay is described as above. The format is cell-based, Human. Conditions: 48 hours exposure. On the procedure:
as §1

The next assay has as its system MDA435. The assay is described as above. Conditions: 48 hours exposure. The format is cell-based, Human. Here is the method:
as §1

A further assay deals with SKBR3. Described as above. The assay is classed as cell-based, Human. Here is the method:
as §1

The subject of a further assay is SW620. The description is as above. The assay is classed as cell-based, Human. Here is the method: as §1
Setting [3] is: recombinant His-tagged cytoplasmic domain of EGFR, RR-SRC peptide, 90 min at room temperature, read-out: IC50.
Where [4] appears, read: Homo sapiens, 48 h, read-out: IC50.
Where [5] appears, read: Homo sapiens, A-431, 48 h, read-out: IC50.
Where [6] appears, read: Homo sapiens, MDA435, 48 h, read-out: IC50.
The mark [7] stands for this setting: Homo sapiens, SK-BR-3, 48 hours exposure, read-out: IC50.
Where [8] appears, read: Homo sapiens, SW-620, 48 hours exposure, read-out: IC50.

Chain of Mitogen Activated Protein Kinase (Mek-Erk) (P28482 2-360): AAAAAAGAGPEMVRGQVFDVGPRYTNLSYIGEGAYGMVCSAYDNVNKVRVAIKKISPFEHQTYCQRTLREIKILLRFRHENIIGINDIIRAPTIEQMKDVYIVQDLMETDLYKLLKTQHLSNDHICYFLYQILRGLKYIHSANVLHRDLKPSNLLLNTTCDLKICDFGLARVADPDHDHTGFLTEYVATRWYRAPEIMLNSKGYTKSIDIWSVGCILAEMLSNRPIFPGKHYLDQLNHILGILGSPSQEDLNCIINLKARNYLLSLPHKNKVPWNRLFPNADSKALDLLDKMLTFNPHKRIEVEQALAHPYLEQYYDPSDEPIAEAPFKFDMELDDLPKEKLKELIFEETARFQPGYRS
Chain of Mitogen Activated Protein Kinase (Mek-Erk) (Q02750 whole entry): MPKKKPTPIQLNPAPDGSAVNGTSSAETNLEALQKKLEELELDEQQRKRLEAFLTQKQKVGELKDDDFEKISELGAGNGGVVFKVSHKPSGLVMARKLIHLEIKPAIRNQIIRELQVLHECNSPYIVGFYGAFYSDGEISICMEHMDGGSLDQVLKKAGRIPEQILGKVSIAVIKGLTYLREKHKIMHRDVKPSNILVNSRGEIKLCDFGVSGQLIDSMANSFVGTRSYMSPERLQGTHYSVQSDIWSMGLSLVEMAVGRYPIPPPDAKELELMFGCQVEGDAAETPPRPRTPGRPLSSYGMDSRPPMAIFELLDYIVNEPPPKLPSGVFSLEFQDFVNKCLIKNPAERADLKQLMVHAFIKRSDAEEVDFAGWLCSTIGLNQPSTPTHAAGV

As to `N#Cc1cnc2ncc([N+](=O)[O-])cc2c1Nc1cccc(Br)c1` [Example 21, 4-(3-Bromo-phenylamino)-6-nitro-[1.8]naphthyridine-3-carbonitrile], the half-maximal inhibitory concentration (IC50) in assay [1] (setting [3]) was determined as 0.003 µM.

Consider `N#Cc1cnc2ncc(N)cc2c1Nc1cccc(Br)c1` [Example 22, 6-Amino-4-(3-bromo-phenylamino)-[1.8]naphthyridine-3-carbonitrile], for which the IC50 in assay [1] (setting [3]) was 0.05 µM; in assay [2], more than 100 µM.

Turning to `C=CC(=O)Nc1cnc2ncc(C#N)c(Nc3cccc(Br)c3)c2c1` [Example 23, N-[5-(3-Bromo-phenylamino)-6-cyano-[1.8]naphthyridin-3-yl]-acrylamide], the IC50 is 0.007 µM in assay [1]; > 100 µM and 100 µM in assay [2] (read-out: IC50).

Regarding `N#Cc1cnc2ncc([N+](=O)[O-])cc2c1Nc1ccc(F)c(Cl)c1` [Example 25, 4-(3-Chloro-4-fluoro-phenylamino)-6-nitro-[1.8]naphthyridine-3-carbonitrile], the IC50 in assay [1] (setting [3]) was determined as 0.1 µM.

For `N#Cc1cnc2ncc(N)cc2c1Nc1ccc(F)c(Cl)c1` [Example 26, 6-Amino-4-(3-chloro-4-fluoro-phenylamino)-[1.8]naphthyridine-3-carbonitrile], the IC50 in assay [2] (read-out: IC50) was more than 100 µM.

Turning to `CC#CC(=O)Nc1cnc2ncc(C#N)c(Nc3ccc(F)c(Cl)c3)c2c1` [Example 27, But-2-ynoic acid [5-(3-chloro-4-fluoro-phenylamino)-6-cyano-[1.8]-naphthyridin-3-yl]-amide], in assay [2], the IC50 is more than 100 µM.

In the case of `N#Cc1cnc2ncc(NC(=O)CCl)cc2c1Nc1cccc(Br)c1` [Example 28, N-[5-(3-Bromo-phenylamino)-6-cyano-[1.8]naphthyridin-3-yl]-2-chloro-acetamide], the IC50 in assay [2] (read-out: IC50) was determined as 6 µM.

With `CN(C)CC=CC(=O)Nc1cnc2ncc(C#N)c(Nc3cccc(Br)c3)c2c1` [Example 30, 4-Dimethylamino-but-2-enoic acid [5-(3-bromo-phenylamino)-6-cyano-[1.8]naphthyridin-3-yl]-amide], the inhibition at 0.5 µM in assay [1] was determined as 47%. For the same compound, the half-maximal inhibitory concentration (IC50) in assay [1] (setting [3]) was 0.8 µM; in assay [2] (read-out: IC50) it was 50 µM; in the assay with A2780DDP (setting [4]), 4 µg/mL (≈ 8.87 µM); with A2780S (setting [4]), 1.77 µg/mL (≈ 3.92 µM); in the assay on A431 (setting [5]) it was 2.76 µg/mL (≈ 6.12 µM); in the assay on MDA435 (setting [6]) it was more than 5 µg/mL. Moreover, the concentration for half-maximal inhibition (IC50) in the assay with SKBR3 (setting [7]) was 4.83 µg/mL (≈ 10.7 µM); with SW620 (setting [8]) it was more than 5 µg/mL.

`CCOc1ccc2ncc(C#N)c(Nc3cccc(Br)c3)c2n1` [Example 35, 4-(3-Bromo-phenylamino)-6-ethoxy-[1.5]naphthyridine-3-carbonitrile]: in assay [1], the inhibition at 0.5 µM came to 9%. Further, the concentration for half-maximal inhibition (IC50) in assay [1] (setting [3]) is more than 10 µM; in assay [2] it was more than 100 µM.

In the case of `N#Cc1cnc2cccnc2c1Nc1cccc(Br)c1` [Example 37, 4-(3-Bromophenylamino)-[1.5]naphthyridine-3-carbonitrile], in assay [2] (read-out: IC50), the IC50 is more than 100 µM.

As to `N#Cc1cnc2ccc(N)nc2c1Nc1cccc(Br)c1` [Example 49, 6-Amino-4-(3-bromo-phenylamino)-[1.5]naphthyridine-3-carbonitrile], the half-inhibitory concentration (IC50) in assay [2] was determined as 25 µM.

Take `N#Cc1cnc2cnc(F)cc2c1Nc1cccc(Br)c1` [Example 57, 4-(3-Bromo-phenylamino)-6-fluoro-[1.7]naphthyridine-3-carbonitrile]: the IC50 in assay [1] (setting [3]) was 0.008 µM; in assay [2], more than 100 µM; in the assay with A2780DDP (setting [4]) it was more than 5 µg/mL; with A2780S (setting [4]), 3.33 µg/mL (≈ 9.7 µM); in the assay on A431 (setting [5]) it was 3.92 µg/mL (≈ 11.4 µM); with MDA435 (setting [6]), more than 5 µg/mL. In addition, the concentration for half-maximal inhibition (IC50) in the assay with SKBR3 (setting [7]) and in the assay with SW620 (setting [8]) was more than 5 µg/mL throughout.

As for `N#Cc1cnc2cnc(N)cc2c1Nc1cccc(Br)c1` [Example 59, 6-Amino-4-(3-bromo-phenylamino)-[1.7]naphthyridine-3-carbonitrile], the half-maximal inhibitory concentration (IC50) in assay [1] (setting [3]) is 0.0007 µM; with A2780DDP (setting [4]) it was 3.1 µg/mL (≈ 9.11 µM); in the assay with A2780S (setting [4]), 3.5 µg/mL (≈ 10.3 µM); in the assay with A431 (setting [5]), 0.4 µg/mL (≈ 1.18 µM); with MDA435 (setting [6]), more than 5 µg/mL; with SKBR3 (setting [7]) it was 4.1 µg/mL (≈ 12.1 µM). Further, the IC50 in the assay with SW620 (setting [8]) was more than 5 µg/mL.

Regarding `C[Si](C)(C)C#Cc1cc2c(Nc3cccc(Br)c3)c(C#N)cnc2cn1` [Example 85, 4-(3-Bromo-phenylamino)-6-trimethylsilanylethynyl-[1.7]naphthyridine-3-carbonitrile], the concentration for half-maximal inhibition (IC50) in the assay with A2780DDP worked out at 2.969 µg/mL (≈ 7.05 µM); in the assay on A2780S it was 2.344 µg/mL (≈ 5.56 µM); in the assay on A431, 3.056 µg/mL (≈ 7.25 µM); in the assay with MDA435, 4.203 µg/mL (≈ 9.97 µM); with SKBR3 (48 hours exposure) it was 3.591 µg/mL (≈ 8.52 µM); in the assay with SW620 (48 hours exposure) it was 4.724 µg/mL (≈ 11.2 µM).
